We go through 5 compounds from patent publication US11566057B2, “Long-acting co-agonists of the glucagon and GLP-1 receptors” (Merck Sharp & Dohme Corp., priority 2017, dated 2023).

A word on the EC50: it is the concentration needed to bring the measured effect to its halfway point.

Each structure is given as a SMILES string. Read-outs that look alike come from different tables or passages of the source. Numbered stars: 1 amine (or outer) side, 2 acyl side, 3 side chain; on linkers, the order of the positions; unused ones are H or OH. Square brackets hold non-standard residues; d marks the D form. Side chains are listed from the residue outwards. Peptide text beside a SMILES is read from it. * marks the point of attachment. C20 diacid = O=C(O)CCCCCCCCCCCCCCCCCCC(=O)*; Phe(4-CH2NH2) = NCc1ccc(C[C@H](N)C(=O)O)cc1; C18 diacid = O=C(O)CCCCCCCCCCCCCCCCC(=O)*; γGlu = O=C(O)[C@H](CCC(=O)[*:2])N[*:1]; Met(O2) = CS(=O)(=O)CC[C@H](N)C(=O)O; αMeD = C[C@](N)(CC(=O)O)C(=O)O; AEEA = NCCOCCOCC(=O)O; Aib = CC(C)(N)C(=O)O

Test [1] deals with T1, human GCGR (Homo sapiens, UniProt P47871).
T1 construct: expressed in transfected cells; growth medium holds Blasticidin and Hygromycin
T1 sequence (P47871 26-477): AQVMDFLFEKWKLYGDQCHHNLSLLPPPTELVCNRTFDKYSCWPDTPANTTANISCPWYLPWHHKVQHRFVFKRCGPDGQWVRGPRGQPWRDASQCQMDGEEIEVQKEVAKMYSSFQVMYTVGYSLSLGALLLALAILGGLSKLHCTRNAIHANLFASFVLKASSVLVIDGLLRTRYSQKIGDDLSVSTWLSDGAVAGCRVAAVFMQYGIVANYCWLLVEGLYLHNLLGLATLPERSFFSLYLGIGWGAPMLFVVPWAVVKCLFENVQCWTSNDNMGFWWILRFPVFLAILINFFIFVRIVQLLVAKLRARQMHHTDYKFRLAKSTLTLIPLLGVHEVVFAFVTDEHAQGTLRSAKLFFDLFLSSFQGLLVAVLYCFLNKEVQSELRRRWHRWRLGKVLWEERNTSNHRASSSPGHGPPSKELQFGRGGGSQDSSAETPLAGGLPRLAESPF
As to the kind of experiment: cAMP activity assay at the Glucagon receptor (GCGR). Format: cell-based. The settings on record: for hGCGR/hGLP1R (hTone): ratio of GCGR EC50 to GLP1R EC50. In short, it runs like this:
(§1)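 Peptides serially diluted from DMSO (10 points) and added to frozen-stock cells bearing human GLP1R (10,000 cells/well) or GCGR (30,000 cells/well), 1 h at RT, dark. EC50 by four-parameter logistic fit of HitHunter cAMPXS luminescence, read following overnight RT incubation.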

For test [2], the target named is T2, human GLP1R (Homo sapiens, UniProt P43220).
T2 construct: expressed in transfected cells; growth medium holds Blasticidin and Hygromycin
T2 sequence (P43220 24-463): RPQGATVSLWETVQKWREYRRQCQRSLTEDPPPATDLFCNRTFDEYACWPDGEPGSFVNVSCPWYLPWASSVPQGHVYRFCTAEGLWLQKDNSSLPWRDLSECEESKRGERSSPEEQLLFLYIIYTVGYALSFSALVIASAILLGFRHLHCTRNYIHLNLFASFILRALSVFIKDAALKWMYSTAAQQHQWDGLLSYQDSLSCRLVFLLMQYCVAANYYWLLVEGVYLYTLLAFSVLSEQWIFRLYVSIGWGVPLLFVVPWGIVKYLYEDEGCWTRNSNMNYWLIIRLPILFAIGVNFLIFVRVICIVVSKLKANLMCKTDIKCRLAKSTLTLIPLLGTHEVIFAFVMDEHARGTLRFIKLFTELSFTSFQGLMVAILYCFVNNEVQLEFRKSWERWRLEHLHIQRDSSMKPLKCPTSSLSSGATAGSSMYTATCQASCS
Nature of the test: cAMP activity assay at the GLP-1 receptor (GLP1R). Format: cell-based. In short, it runs like this: as §1

Where [3] appears, read: cells expressing human GCGR, cAMP production, buffer with or without 20% human serum (not stated which), read-out: GCGR EC50 human.
[4] abbreviates: cells expressing human GLP1R, cAMP production, buffer with or without 20% human serum (not stated which), read-out: GLP1R EC50 human.
[5] abbreviates: summary statement: EC50 at each of the glucagon and GLP-1 receptors, read-out: EC50 at the glucagon receptor.
[6] abbreviates: summary statement: EC50 at each of the glucagon and GLP-1 receptors, read-out: EC50 at the GLP-1 receptor.

Consider `CC(C)C[C@H](NC(=O)[C@H](CCCCN)NC(=O)[C@H](CCCCN)NC(=O)[C@H](CO)NC(=O)[C@H](Cc1ccc(O)cc1)NC(=O)[C@H](CCC(=O)O)NC(=O)[C@H](CO)NC(=O)[C@@H](NC(=O)[C@H](Cc1ccccc1)NC(=O)[C@@H](NC(=O)CNC(=O)[C@H](CCC(N)=O)NC(=O)C(C)(C)NC(=O)[C@@H](N)Cc1c[nH]cn1)[C@@H](C)O)[C@@H](C)O)C(=O)N[C@@H](CC(=O)O)C(=O)N[C@@H](C)C(=O)N[C@@H](CCCNC(=N)N)C(=O)N[C@@H](C)C(=O)N[C@@H](C)C(=O)N[C@@H](CCCCNC(=O)COCCOCCNC(=O)COCCOCCNC(=O)CC[C@H](NC(=O)CCCCCCCCCCCCCCCCC(=O)O)C(=O)O)C(=O)N[C@@H](CC(=O)O)C(=O)N[C@@H](Cc1ccccc1)C(=O)N[C@H](C(=O)N[C@@H](CCC(N)=O)C(=O)N[C@@H](Cc1c[nH]c2ccccc12)C(=O)N[C@@H](CC(C)C)C(=O)N[C@@H](CCS(C)(=O)=O)C(=O)N[C@@H](CC(=O)O)C(=O)N[C@H](C(N)=O)[C@@H](C)O)C(C)C` [TP703] (H-H[Aib]QGTFTSEYSKKLDARAAK([AEEA-AEEA-γGlu-C18 diacid])DFVQWL[Met(O2)]DT-NH2), for which the EC50 in test [1] (setting [3]) and in test [2] (setting [4]) was greater than 19.8 nM each time.

`CC(C)C[C@H](NC(=O)[C@H](Cc1c[nH]c2ccccc12)NC(=O)[C@H](CCC(N)=O)NC(=O)[C@@H](NC(=O)[C@H](Cc1ccccc1)NC(=O)[C@](C)(CC(=O)O)NC(=O)[C@H](CCCCNC(=O)COCCOCCNC(=O)COCCOCCNC(=O)CC[C@H](NC(=O)CCCCCCCCCCCCCCCCC(=O)O)C(=O)O)NC(=O)[C@H](C)NC(=O)[C@H](C)NC(=O)[C@H](CCCNC(=N)N)NC(=O)[C@H](C)NC(=O)[C@](C)(CC(=O)O)NC(=O)[C@H](CC(C)C)NC(=O)[C@H](Cc1ccc(O)cc1)NC(=O)[C@H](CCCCN)NC(=O)[C@H](CO)NC(=O)[C@H](Cc1ccc(O)cc1)NC(=O)[C@H](CC(=O)O)NC(=O)[C@H](CO)NC(=O)[C@@H](NC(=O)[C@H](Cc1ccccc1)NC(=O)[C@@H](NC(=O)CNC(=O)[C@H](CCC(N)=O)NC(=O)C(C)(C)NC(=O)[C@@H](N)Cc1c[nH]cn1)[C@@H](C)O)[C@@H](C)O)C(C)C)C(=O)N[C@@H](CCS(C)(=O)=O)C(=O)N[C@@](C)(CC(=O)O)C(=O)N[C@H](C(N)=O)[C@@H](C)O` [TP612] (H-H[Aib]QGTFTSDYSKYL[αMeD]ARAAK([AEEA-AEEA-γGlu-C18 diacid])[αMeD]FVQWL[Met(O2)][αMeD]T-NH2; N-terminus assumed): in test [1], the “hGCGR/hGLP1R (hTone)” value is on record as less than 0.41. Also, the values for the EC50 in test [1] (setting [5]), in test [2] (setting [4]) and in test [2] (setting [6]) were less than 5 nM, 4.95 nM and less than 5 nM, respectively.

Take `CC(C)C[C@H](NC(=O)[C@H](Cc1ccc(O)cc1)NC(=O)[C@H](CCCCN)NC(=O)[C@H](CO)NC(=O)[C@H](Cc1ccc(CNC(=O)COCCOCCNC(=O)COCCOCCNC(=O)CC[C@H](NC(=O)CCCCCCCCCCCCCCCCC(=O)O)C(=O)O)cc1)NC(=O)[C@H](CC(=O)O)NC(=O)[C@H](CO)NC(=O)[C@@H](NC(=O)[C@H](Cc1ccccc1)NC(=O)[C@@H](NC(=O)CNC(=O)[C@H](CCC(N)=O)NC(=O)C(C)(C)NC(=O)[C@@H](N)Cc1c[nH]cn1)[C@@H](C)O)[C@@H](C)O)C(=O)N[C@@H](CC(=O)O)C(=O)N[C@@H](C)C(=O)N[C@@H](CCCNC(=N)N)C(=O)N[C@@H](C)C(=O)N[C@@H](C)C(=O)N[C@@H](CCC(N)=O)C(=O)N[C@@H](CC(=O)O)C(=O)N[C@@H](Cc1ccccc1)C(=O)N[C@H](C(=O)N[C@@H](CCC(N)=O)C(=O)N[C@@H](Cc1c[nH]c2ccccc12)C(=O)N[C@@H](CC(C)C)C(=O)N[C@@H](CCS(C)(=O)=O)C(=O)N[C@@](C)(CC(=O)O)C(=O)N[C@H](C(N)=O)[C@@H](C)O)C(C)C` [TP624] (H-H[Aib]QGTFTSD[Phe(4-CH2NH2)]([AEEA-AEEA-γGlu-C18 diacid])SKYLDARAAQDFVQWL[Met(O2)][αMeD]T-NH2; N-terminus assumed): the “hGCGR/hGLP1R (hTone)” value in test [1] was found to be 1.1. Further, the 50% effective concentration (EC50) in test [1] (setting [5]) and in test [2] (setting [6]) was less than 5 nM each time.

As to `CC(C)C[C@H](NC(=O)[C@H](Cc1ccc(O)cc1)NC(=O)[C@H](CCCCN)NC(=O)[C@H](CO)NC(=O)[C@H](Cc1ccc(O)cc1)NC(=O)[C@H](CC(=O)O)NC(=O)[C@H](CO)NC(=O)[C@@H](NC(=O)[C@H](Cc1ccccc1)NC(=O)[C@@H](NC(=O)CNC(=O)[C@H](CCC(N)=O)NC(=O)C(C)(C)NC(=O)[C@@H](N)Cc1c[nH]cn1)[C@@H](C)O)[C@@H](C)O)C(=O)N[C@@H](CC(=O)O)C(=O)N[C@@H](CO)C(=O)N[C@@H](CCCNC(=N)N)C(=O)N[C@@H](C)C(=O)N[C@@H](C)C(=O)N[C@@H](CCCCNC(=O)COCCOCCNC(=O)COCCOCCNC(=O)CC[C@H](NC(=O)CCCCCCCCCCCCCCCCCCC(=O)O)C(=O)O)C(=O)N[C@@H](CC(=O)O)C(=O)N[C@@H](Cc1ccccc1)C(=O)N[C@H](C(=O)N[C@@H](CCC(N)=O)C(=O)N[C@@H](Cc1c[nH]c2ccccc12)C(=O)N[C@@H](CC(C)C)C(=O)N[C@@H](CCS(C)(=O)=O)C(=O)N[C@@H](CC(=O)O)C(=O)N[C@H](C(N)=O)[C@@H](C)O)C(C)C` [TP577] (H-H[Aib]QGTFTSDYSKYLDSRAAK([AEEA-AEEA-γGlu-C20 diacid])DFVQWL[Met(O2)]DT-NH2; N-terminus assumed), the EC50 is 4.54 nM in test [1] (setting [3]), less than 5 nM in test [1] (setting [5]) and less than 5 nM in test [2] (setting [6]). In addition, in test [1], the “hGCGR/hGLP1R (hTone)” value is 2.7.

For the compound `CC(C)C[C@H](NC(=O)[C@H](Cc1ccc(O)cc1)NC(=O)[C@H](CCCCN)NC(=O)[C@H](CO)NC(=O)[C@H](Cc1ccc(O)cc1)NC(=O)[C@H](CC(=O)O)NC(=O)[C@H](CO)NC(=O)[C@@H](NC(=O)[C@H](Cc1ccccc1)NC(=O)[C@@H](NC(=O)CNC(=O)[C@H](CCC(N)=O)NC(=O)C(C)(C)NC(=O)[C@@H](N)Cc1c[nH]cn1)[C@@H](C)O)[C@@H](C)O)C(=O)N[C@@H](CC(=O)O)C(=O)N[C@@H](C)C(=O)N[C@@H](CCCNC(=N)N)C(=O)N[C@@H](C)C(=O)N[C@@H](C)C(=O)N[C@@H](CCCCNC(=O)COCCOCCNC(=O)COCCOCCNC(=O)CC[C@H](NC(=O)CCCCCCCCCCCCCCCCC(=O)O)C(=O)O)C(=O)N[C@@H](CC(=O)O)C(=O)N[C@@H](Cc1ccccc1)C(=O)N[C@H](C(=O)N[C@@H](CCC(N)=O)C(=O)N[C@@H](Cc1c[nH]c2ccccc12)C(=O)N[C@@H](CC(C)C)C(=O)N[C@@H](CCS(C)(=O)=O)C(=O)N[C@@](C)(CC(=O)O)C(=O)N[C@H](C(=O)O)[C@@H](C)O)C(C)C` [TP735] (H-H[Aib]QGTFTSDYSKYLDARAAK([AEEA-AEEA-γGlu-C18 diacid])DFVQWL[Met(O2)][αMeD]T-OH; N-terminus assumed), the “hGCGR/hGLP1R (hTone)” value in test [1] is recorded as 1.4. The EC50 in test [1] (setting [5]) and in test [2] (setting [6]) was less than 5 nM throughout.
